In US20260199239A1, “IONIZABLE LIPIDS WITH MALONATE TAILS” (ModernaTX, Inc., priority 2022, published 2026):
Several values for one entry are separate records, joined by “and”; a condition that tells them apart may be missing. Equal entries are not always repeated.

Columns and labels:
[1] = LNP particle size and polydispersity index (PDI); assay type: physicochemical; settings: LNP lipid:PEG-1:DSPC:Cholesterol 48:2:11:39, hEPO mRNA, 20 mM Tris 8% Sucrose pH 7.4
Method: A Zetasizer Nano ZS (Malvern Instruments Ltd, Malvern, Worcestershire, UK) can be used to determine the particle size, the polydispersity index (PDI) and the zeta potential of the nanoparticle compositions in 1×PBS in determining particle size and 15 mM PBS in determining zeta potential.
LNPs may be characterized by a variety of methods. For example, microscopy (e.g., transmission electron microscopy or scanning electron microscopy) may be used to examine the morphology and size distribution of a nanoparticle composition. Dynamic light scattering or potentiometry (e.g., potentiometric titrations) may be used to measure zeta potentials. Dynamic light scattering may also be utilized to determine particle sizes. Instruments such as the Zetasizer Nano ZS (Malvern Instruments Ltd, Malvern, Worcestershire, UK) may also be used to measure multiple characteristics of a nanoparticle composition, such as particle size, polydispersity index, and zeta potential.
(§1) LNPs comprising ionizable lipids described herein were formulated according to Table 2 and the following general procedure.
(§2) General procedure for one-pot LNP formation: Lipid stock solutions in ethanol are mixed with mRNA in 25 mM acetate solution at a 3:1 ratio in a microfluidic mixer. The resulting LNPs, which are at approximately pH 5 and 25% EtOH, are buffer exchanged by dialysis into the storage buffer. The LNP solutions are then concentrated by Amicon® and purified by a 0.2 uM sterile filter.

[2] = mRNA encapsulation by the LNP (% EE, total mRNA in TX); assay type: physicochemical; settings: LNP lipid:PEG-1:DSPC:Cholesterol 48:2:11:39, hEPO mRNA
Method: For nanoparticle compositions including an RNA, a QUANT-IT™ RIBOGREEN® RNA assay (Invitrogen Corporation Carlsbad, CA) can be used to evaluate the encapsulation of an RNA by the nanoparticle composition. The samples are diluted to a concentration of approximately 5 μg/mL in a TE buffer solution (10 mM Tris-HCl, 1 mM EDTA, pH 7.5). 50 μL of the diluted samples are transferred to a polystyrene 96 well plate and either 50 μL of TE buffer or 50 μL of a 2% Triton X-100 solution is added to the wells. The plate is incubated at a temperature of 37° C. for 15 minutes. The RIBOGREEN® reagent is diluted 1:100 in TE buffer, and 100 μL of this solution is added to each well. The fluorescence intensity can be measured using a fluorescence plate reader (Wallac Victor 1420 Multilablel Counter; Perkin Elmer, Waltham, MA) at an excitation wavelength of, for example, about 480 nm and an emission wavelength of, for example, about 520 nm. The fluorescence values of the reagent blank are subtracted from that of each of the samples and the percentage of free RNA is determined by dividing the fluorescence intensity of the intact sample (without addition of Triton X-100) by the fluorescence value of the disrupted sample (caused by the addition of Triton X-100).
The efficiency of encapsulation of a therapeutic and/or prophylactic agent describes the amount of therapeutic and/or prophylactic agent that is encapsulated or otherwise associated with an LNP after preparation, relative to the initial amount provided. The encapsulation efficiency is desired to be high (e.g., close to 100%). The encapsulation efficiency may be measured, for example, by comparing the amount of therapeutic and/or prophylactic agent in a solution containing a loaded LNP before and after breaking up the loaded LNP with one or more organic solvents or detergents. Fluorescence may be used to measure the amount of free therapeutic and/or prophylactic agent (e.g., RNA) in a solution. For the loaded LNPs formulated with lipids of the disclosure, the encapsulation efficiency of a therapeutic and/or prophylactic agent is at least 50%, for example 50%, 55%, 60%, 65%, 70%, 75%, 80%, 85%, 90%, 91%, 92%, 93%, 94%, 95%, 96%, 97%, 98%, 99%, or 100%. In some embodiments, the encapsulation efficiency is at least 80%. In some embodiments, the encapsulation efficiency is at least 90%. In some embodiments, the encapsulation efficiency of the therapeutic and/or prophylactic agent is between 80% and 100%.
as §1, §2

[3] = Osmolality of LNP formulation; assay type: physicochemical; settings: LNP formulation in 20 mM Tris 8% Sucrose storage buffer
Excerpt: as §1

hEPO protein expression = hEPO protein expression in vivo after systemic administration of LNPs
Method: In order to monitor how effectively various nanoparticle compositions deliver therapeutic and/or prophylactic agents to targeted cells, different nanoparticle compositions including a particular therapeutic and/or prophylactic agent (for example, a modified or naturally occurring RNA such as an mRNA) are prepared and administered to animal populations. Animals (e.g., mice, rats, or non-human primates) are intravenously, intramuscularly, intraarterially, or intratumorally administered a single dose including a nanoparticle composition comprising a lipid of the disclosure and an mRNA expressing a protein, e.g., human erythropoietin (hEPO) or luciferase. A control composition including PBS may also be employed.
Upon administration of nanoparticle compositions to an animal, dose delivery profiles, dose responses, and toxicity of particular formulations and doses thereof can be measured by enzyme-linked immunosorbent assays (ELISA), bioluminescent imaging, or other methods. For nanoparticle compositions including mRNA, time courses of protein expression can also be evaluated. Samples collected from the animals for evaluation may include blood, sera, and tissue (for example, muscle tissue from the site of an intramuscular injection and internal tissue); sample collection may involve sacrifice of the animals.
ELISA test kits may provide hEPO concentrations in milli International Units per mL (mIU/mL), e.g., per mL of tested serum. Typically, the EPO concentration of unknown sample is calculated from a calibration curve. Standards (used for the calibration curve) are calibrated according to the 2. IRP WHO preparation. In some embodiments, mIU/mL corresponds to […]. Nanoparticle compositions including mRNA are useful in the evaluation of the efficacy and usefulness of various formulations for the delivery of therapeutic and/or prophylactic agents. Higher levels of protein expression induced by administration of a composition including an mRNA will be indicative of higher mRNA translation and/or nanoparticle composition mRNA delivery efficiencies. As the non-RNA components are not thought to affect translational machineries themselves, a higher level of protein expression is likely indicative of a higher efficiency of delivery of the therapeutic and/or prophylactic agent by a given nanoparticle composition relative to other nanoparticle compositions or the absence thereof.
In some embodiments, an in vivo expression assay may be used to assess potency of expression of lipids of the disclosure. In some embodiments, the protein expression (hEPO) may be measured in mice following administration of a nanoparticle comprising a lipid of the disclosure (e.g., a loaded LNP). In some embodiments, lipid nanoparticles of the instant disclosure may be intravenously administered to mice (e.g., CD-1 mice).
In some embodiments, the concentration of hEPO in serum may be tested after administration (e.g., about six hours after injection). In some embodiments, residual levels of the lipids of the disclosure in organs or tissue of the subject after administration (e.g., 6 h, 12 h, 18 h, 24 h, 36h, or 48 h after administration) are measured. In some embodiments, the residual levels of the lipids of the disclosure in the liver are measured. In some embodiments, an in vitro expression assay may be used to assess nanoparticles of the disclosure. In some embodiments, cells (e.g., HeLa) may be plated in an imaging plate (e.g., poly-D-lysine coated) and cultured in serum (e.g., human serum, mouse serum, cynomolgus monkey serum or fetal bovine serum). In some embodiments, lipid nanoparticles of the disclosure comprising an mRNA expressing fluorescent protein (e.g., green fluorescent protein (GFP)) and a fluorescent lipid (e.g., rhodamine-DOPE) may be added to the plate and the plate imaged for uptake and expression. In some embodiments, expression may be evaluated by measuring fluorescence (e.g., from GFP). […]

[4] = Endotoxin content of LNP formulation; settings: LNP lipid:PEG-1:DSPC:Cholesterol 48:2:11:39, hEPO mRNA
Excerpt: as §1

pH of LNP formulation = assay type: physicochemical; settings: LNP formulation in 20 mM Tris 8% Sucrose storage buffer
Excerpt: as §1

[5] = Table 3A groups 1-8, ratio to L5 LNP
[6] = Table 3B groups 1A-8A, ratio to L5 LNP

Row | Compound | PDI [1] | Size (nm) [1] | % EE [2] | Osmolality (mOsm/kg) [3] | 6 hr protein expression ratio cf. L5 (hEPO protein expression; [5]) | 24 hr protein expression ratio cf. L5 (hEPO protein expression; [5]) | Endotoxin (EU/mL) [4] | pH (pH of LNP formulation) | 6 hr protein expression ratio cf. L5 (hEPO protein expression; [6]) | 24 hr protein expression ratio cf. L5 (hEPO protein expression; [6])
1 | CCCCCCCCC(CCCCCCCC)OC(=O)CCCCCCCN(CCCCCCCC(=O)OCCC(CCCC)CCCC)CCCNS(=O)(=O)CC [Compound L2, reference compound] | 0.177 | 60.7 nm | 95.8% | 315 mOsm/kg | 0.7 | 0.8 |  |  |  | 
2 | CCCCCCCCC(CCCCCCCC)OC(=O)CCCCCCCN(CCO)CCCCCCCC(=O)OCCC(CCCC)CCCC [Compound L6, reference compound] | 0.166 | 58.2 nm | 96.9% | 321 mOsm/kg |  |  | 2.3 EU/mL | 7.468 | 0.94 | 0.84
3 | CCCCCCCCC(CCCCCCCC)OC(=O)CCCCCCCN(CCCCCCC(C(=O)OCCCCCC)C(=O)OCCCCCC)CCCNc1c(NC)c(=O)c1=O [Compound M3, Dihexyl 2-(6-((8-(heptadecan-9-yloxy)-8-oxooctyl)(3-((2-(methylamino)-3,4-dioxocyclobut-1-en-1-yl)amino)propyl)amino)hexyl)malonate] | 0.148 and 0.132 | 59.3 nm and 59.1 nm | 97.8% and 98.3% | 317 mOsm/kg and 318 mOsm/kg | 1.0 | 1.2 | 2 EU/mL | 7.155 | 2.53 | 2.42
4 | CCCCCCCCCOC(=O)CCCCCCCN(CCO)CCCCCCCC(=O)OC(CCCCCCCC)CCCCCCCC [Compound L4, reference compound] |  | 74.9 nm and 104.5 nm | 94.8% and 92.6% | 317 mOsm/kg and 311 mOsm/kg | 0.1 | 0.1 | 2.3 EU/mL | 7.444 | 0.08 | 0.07
5 | CCCCCCCCC(CCCCCCCC)OC(=O)CCCCCCCN(CCCCCCC(C(=O)OCCCCCC)C(=O)OCCCCCC)CCCNC(C)=O [Compound M4, Dihexyl 2-(6-((3-acetamidopropyl)(8-(heptadecan-9-yloxy)-8-oxooctyl)amino)hexyl)malonate] | 0.099 | 68.7 nm | 92.2% | 321 mOsm/kg |  |  | 2.6 EU/mL | 7.450 | 0.34 | 0.36
6 | CCCCCCCCC(CCCCCCCC)OC(=O)CCCCCCCN(CCO)CCCCCCC(C(=O)OCCCCCC)C(=O)OCCCCCC [Compound M1, Dihexyl 2-(6-((8-(heptadecan-9-yloxy)-8-oxooctyl)(2-hydroxyethyl)amino)hexyl)malonate] | 0.164 and 0.128 | 57.0 nm and 58.7 nm | 96.9% and 94.1% | 314 mOsm/kg and 320 mOsm/kg | 0.9 | 0.9 | 2.4 EU/mL | 7.452 | 1.70 | 1.46
7 | CCCCCCCCOC(=O)C(CCCCCCN(CCO)CCCCCCCC(=O)OC(CCCCCCCC)CCCCCCCC)C(=O)OCCCCCCCC [Compound M2, Dioctyl 2-(6-((8-(heptadecan-9-yloxy)-8-oxooctyl)(2-hydroxyethyl)amino)hexyl)malonate] | 0.186 | 58.0 nm | 97.9% | 315 mOsm/kg | 0.3 | 0.3 |  |  |  | 
8 | CCCCCCCCC(CCCCCCCC)OC(=O)CCCCCCCN(CCCCCCC(C(=O)OCCCCCC)C(=O)OCCCCCC)CCCNC(=O)CC [Compound M5, Dihexyl 2-(6-((8-(heptadecan-9-yloxy)-8-oxooctyl)(3-propionamidopropyl)amino)hexyl)malonate] | 0.496 | 126.7 nm | 69.8% | 320 mOsm/kg |  |  | 2.7 EU/mL | 6.962 | 1.37 | 1.15
